Reference: patent US20250250303A1 (THE TRUSTEES OF COLUMBIA UNIVERSITY IN THE CITY OF NEW YORK, priority 2022, published 2025)
Entries after “also recorded” stand apart in the source; their conditions may differ. Bridge positions count the residues as written; N and C are the ends. Peptide text beside a SMILES is read from it.

Key:
IR F64A = biological target: T1, IR F64A (Homo sapiens, UniProt P06213, F91A); test: IR activation assay in 293 FT cells, IR F64A mutant; format: cell-based; conditions: 10 nM for 10 min
T1 construct: expressed in transfected cells; host or cells: 293 FT cells

IR K484E/L552A = biological target: T2, IR K484E/L552A (Homo sapiens, UniProt P06213, K511E/L579A); test: IR activation assay in 293 FT cells, IR K484E/L552A double mutant; format: cell-based; conditions: 10 nM for 10 min
T2 construct: expressed in transfected cells; host or cells: 293 FT cells

IR N15K = biological target: T3, IR N15K (Homo sapiens, UniProt P06213, N42K); test: IR activation assay in 293 FT cells, IR N15K mutant; format: cell-based; conditions: 10 min
T3 construct: expressed in transfected cells; host or cells: 293 FT cells

IR D496K = biological target: T4, IR D496K (Homo sapiens, UniProt P06213, D523K); test: IR activation assay in 293 FT cells, IR D496K mutant; format: cell-based; conditions: 10 min
T4 construct: expressed in transfected cells; host or cells: 293 FT cells

IR F701A/F705A = biological target: T5, IR F701A/F705A (Homo sapiens, UniProt P06213, F728A/F732A); test: IR activation assay in 293 FT cells, IR F701A/F705A mutant; format: cell-based; conditions: 10 min
T5 construct: expressed in transfected cells; host or cells: 293 FT cells

IR signaling = test: Insulin signaling in vivo (liver, skeletal muscle, WAT lysates, western blot); parameters: species or system mice
Procedure: 2-3 months old male mice were fasted overnight. […] Livers were removed at 3 min after injection. White adipose tissue and skeletal muscles were removed at 5 min and 7 min after injection, respectively. Tissues were mixed with the lysis buffer B supplemented with complete Protease Inhibitor Cocktail (Roche), PhosSTOP (Sigma), and 25 U/ml turbo nuclease (Accelagen), homogenized with FisherbrandTM Bead Mill homogenizer, and then incubated on ice for 1 hr. After centrifuge at 20,817 g at 4° C. for 30 min, the concentrations of cell lysate were measured using Micro BCA Protein Assay Kit (Thermo Scientific). The lysates were then analyzed by quantitative western blotting.

Insulin tolerance test = format: in vivo, mice; conditions: intraperitoneal
Procedure: Insulin tolerance tests were performed as described previously with some modification. Briefly, 2-3 months old male mice were fasted for 2 hr. and their blood glucose levels (T=0) were measured with tail bleeding using a glucometer (AlphaTRAK). After then, mice were injected intraperitoneally with Humulin (6 nmol/kg body weight), S597 (9 nmol/kg), S597-S20D (9 nmol/kg), S597-W6A (9 nmol/kg), S597-F27A (9 nmol/kg), or S597-N20 (27 nmol/kg), and their blood glucose levels were measured at the indicated time points after injection.

MCF7 = test: Cancer cell proliferation, MCF7; format: cell-based
[1] = format: in vivo, mice; conditions: 50 U/kg once daily for three days; 2 g glucose/kg after 6 hr. fast
Procedure: For oral glucose tolerance test, mice were fasted for 6 hr. and their blood glucose levels (T=0) were measured with tail bleeding using a glucometer (AlphaTRAK). After then, glucose (2 g/kg body weight) was administered by oral gavage. Blood glucose levels were measured at the indicated time points after glucose administration. For FIG. 31F, 2 months old male mice were fasted for 14 hr. […] One hour later livers were collected.

[2] = Zucker diabetic fatty rats; cited from earlier work
[3] = biological target: insulin-like growth factor 1 receptor (IGF1R) (Homo sapiens, UniProt P08069); conditions: previous studies; cited from earlier work
[4] = test system: 3T3-L1 and IR-transfected L6 myoblasts; conditions: cited from earlier work
IR = IR (Mus musculus, UniProt P15208); test: Insulin receptor endocytosis in vivo (liver sections); parameters: from tissue; host or cells: liver of C57BL/6J mice; species or system mice
Procedure: For IR endocytosis assays, the livers were fixed in 10% Neutral Buffered Formalin (NBF) and embedded in paraffin blocks. Sections were deparaffinized, subjected to immunohistochemistry as described in the immunohistochemistry section and previous study.
The immunohistochemistry was performed as described earlier with some modifications. Mouse tissues were fixed in 10% NBF and embedded in paraffin blocks by the Molecular Pathology Core at Columbia University. The deparaffinized sections were subjected to antigen retrieval with 10 mM sodium citrate (pH 6.0), incubated with 0.3% H2O2, blocked with 3% bovine serum albumin (BSA), and then incubated with anti-IR antibodies (CT-3, Millipore, Cat. #MABS65, 1:100) in 3% BSA in PBS with 0.1% Triton X-100 (0.1% PBST) at 4° C. overnight. The slides were washed and incubated with secondary antibodies (Alexa Fluor 568 donkey anti-mouse, Invitrogen, Cat. #A10037, 1:200). The washed slides were stained with 4′,6′-diamidino-2-phenylindole (DAPI). Ten images were randomly taken under x60 magnification with a Leica Thunder Imager (Leica Microsystems Inc.). Images of sections were acquired as series of 0.2 μm stacks. The cell edges were defined with Image J as described earlier. The whole cell signal intensity (WC) and intracell cellular intensity (IC) were measured. The plasma membrane signal intensity (PM) was calculated by subtracting IC from WC. […]

IR D707A = IR D707A (Homo sapiens, UniProt P06213, D734A); test: IR signaling in IR-D707A MEFs (tamoxifen-inducible IR knockout); format: cell-based, mouse; parameters: expressed in transfected cells; host or cells: mouse embryonic fibroblasts from IR F/F; CRE-ERT mice, retroviral pBabe-puro, tamoxifen-treated; conditions: wide range of concentrations
Procedure: Fresh 0.25% trypsin-EDTA was added. […] The medium was changed the next day to remove debris and floating cells.

[5] = WAT, compared to vehicle treated conditions
[6] = liver, injection via inferior vena cava
[7] = skeletal muscle, injection via inferior vena cava

Chain of IR D707A (P06213 28-1370 isoform P06213-2 D734A limits assumed): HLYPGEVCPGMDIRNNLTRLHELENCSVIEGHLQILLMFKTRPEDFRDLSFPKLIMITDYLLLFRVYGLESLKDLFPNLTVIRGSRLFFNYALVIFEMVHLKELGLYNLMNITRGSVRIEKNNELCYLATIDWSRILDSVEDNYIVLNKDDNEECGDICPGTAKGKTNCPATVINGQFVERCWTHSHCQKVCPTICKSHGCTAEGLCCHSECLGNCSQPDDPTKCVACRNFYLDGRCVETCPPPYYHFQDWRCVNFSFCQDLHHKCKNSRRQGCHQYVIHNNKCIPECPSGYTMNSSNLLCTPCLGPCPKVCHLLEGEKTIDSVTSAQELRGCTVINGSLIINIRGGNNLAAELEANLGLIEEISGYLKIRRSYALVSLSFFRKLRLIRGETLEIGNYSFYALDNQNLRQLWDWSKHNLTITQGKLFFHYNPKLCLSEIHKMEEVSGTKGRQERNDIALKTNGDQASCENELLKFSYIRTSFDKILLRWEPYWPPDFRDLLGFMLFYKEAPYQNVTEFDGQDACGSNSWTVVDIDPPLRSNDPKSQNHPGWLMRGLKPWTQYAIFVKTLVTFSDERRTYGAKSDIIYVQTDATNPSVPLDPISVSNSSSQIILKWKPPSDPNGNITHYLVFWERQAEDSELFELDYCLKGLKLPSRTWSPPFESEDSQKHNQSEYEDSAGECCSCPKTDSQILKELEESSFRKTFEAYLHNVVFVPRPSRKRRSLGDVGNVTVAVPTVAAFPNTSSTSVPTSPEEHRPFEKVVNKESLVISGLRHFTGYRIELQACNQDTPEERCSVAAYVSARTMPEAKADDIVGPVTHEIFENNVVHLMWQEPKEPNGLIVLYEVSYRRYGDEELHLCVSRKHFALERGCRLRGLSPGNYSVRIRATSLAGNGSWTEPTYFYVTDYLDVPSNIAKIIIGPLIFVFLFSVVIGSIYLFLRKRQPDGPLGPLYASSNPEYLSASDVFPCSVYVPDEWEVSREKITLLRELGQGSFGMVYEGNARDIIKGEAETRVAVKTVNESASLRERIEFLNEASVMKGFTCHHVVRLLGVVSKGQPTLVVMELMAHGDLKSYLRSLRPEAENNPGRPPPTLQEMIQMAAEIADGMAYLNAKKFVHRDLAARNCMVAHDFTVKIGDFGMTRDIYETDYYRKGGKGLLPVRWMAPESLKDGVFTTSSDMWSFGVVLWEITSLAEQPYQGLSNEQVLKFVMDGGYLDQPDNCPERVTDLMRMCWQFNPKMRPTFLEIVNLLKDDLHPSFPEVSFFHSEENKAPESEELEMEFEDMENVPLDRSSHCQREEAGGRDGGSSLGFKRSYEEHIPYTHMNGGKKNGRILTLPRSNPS
Chain of IR D707A (P06213 763-1382 partner limits assumed): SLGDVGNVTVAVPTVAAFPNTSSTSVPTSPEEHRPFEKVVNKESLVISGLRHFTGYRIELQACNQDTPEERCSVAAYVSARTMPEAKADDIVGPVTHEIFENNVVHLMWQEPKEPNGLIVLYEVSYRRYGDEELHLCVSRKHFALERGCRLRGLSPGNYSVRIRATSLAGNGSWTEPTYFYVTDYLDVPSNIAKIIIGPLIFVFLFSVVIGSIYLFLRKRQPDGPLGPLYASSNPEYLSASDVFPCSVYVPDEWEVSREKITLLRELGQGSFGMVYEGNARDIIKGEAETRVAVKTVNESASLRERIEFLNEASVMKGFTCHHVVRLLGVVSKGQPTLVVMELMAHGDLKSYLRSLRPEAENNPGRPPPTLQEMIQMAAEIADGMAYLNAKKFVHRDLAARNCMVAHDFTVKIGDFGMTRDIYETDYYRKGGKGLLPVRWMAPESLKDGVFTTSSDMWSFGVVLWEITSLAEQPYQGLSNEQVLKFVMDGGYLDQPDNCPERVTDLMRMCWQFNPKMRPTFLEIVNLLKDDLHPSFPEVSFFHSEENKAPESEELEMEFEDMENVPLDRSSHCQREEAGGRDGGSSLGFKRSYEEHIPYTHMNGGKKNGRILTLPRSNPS
T4 sequence (P06213 28-1370 isoform P06213-2 D523K limits assumed): as the sequence (P06213 28-1370 isoform P06213-2 D734A limits assumed) above, with D496K, A707D counted along it
T4 sequence (P06213 763-1382 partner limits assumed): as the sequence (P06213 763-1382 partner limits assumed) above
Chain of insulin-like growth factor 1 receptor (IGF1R) (P08069 31-736 limits assumed, species assumed): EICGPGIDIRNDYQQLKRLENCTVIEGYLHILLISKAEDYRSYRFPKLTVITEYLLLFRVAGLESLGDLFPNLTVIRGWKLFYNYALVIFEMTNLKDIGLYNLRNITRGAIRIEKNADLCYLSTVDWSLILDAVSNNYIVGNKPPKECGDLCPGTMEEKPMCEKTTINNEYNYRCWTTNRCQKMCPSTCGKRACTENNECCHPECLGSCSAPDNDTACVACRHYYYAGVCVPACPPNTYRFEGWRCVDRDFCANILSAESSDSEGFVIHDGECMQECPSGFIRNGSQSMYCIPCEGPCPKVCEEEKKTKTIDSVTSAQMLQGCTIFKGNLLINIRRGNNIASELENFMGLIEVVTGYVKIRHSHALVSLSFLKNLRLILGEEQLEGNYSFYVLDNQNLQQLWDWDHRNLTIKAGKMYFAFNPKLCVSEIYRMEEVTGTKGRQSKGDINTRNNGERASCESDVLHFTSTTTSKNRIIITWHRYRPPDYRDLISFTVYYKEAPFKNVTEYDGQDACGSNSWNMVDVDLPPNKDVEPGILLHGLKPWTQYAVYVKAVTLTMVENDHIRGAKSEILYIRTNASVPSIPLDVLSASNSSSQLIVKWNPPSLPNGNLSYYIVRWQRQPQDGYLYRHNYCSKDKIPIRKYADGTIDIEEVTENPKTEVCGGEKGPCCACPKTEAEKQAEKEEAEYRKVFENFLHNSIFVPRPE
T2 sequence (P06213 28-1370 isoform P06213-2 K511E/L579A limits assumed): as the sequence (P06213 28-1370 isoform P06213-2 D734A limits assumed) above, with K484E, L552A, A707D counted along it
T2 sequence (P06213 763-1382 partner limits assumed): as the sequence (P06213 763-1382 partner limits assumed) above
T1 sequence (P06213 28-1370 isoform P06213-2 F91A limits assumed): as the sequence (P06213 28-1370 isoform P06213-2 D734A limits assumed) above, with F64A, A707D counted along it
T1 sequence (P06213 763-1382 partner limits assumed): as the sequence (P06213 763-1382 partner limits assumed) above
T3 sequence (P06213 28-1370 isoform P06213-2 N42K limits assumed): as the sequence (P06213 28-1370 isoform P06213-2 D734A limits assumed) above, with N15K, A707D counted along it
T3 sequence (P06213 763-1382 partner limits assumed): as the sequence (P06213 763-1382 partner limits assumed) above
Chain of IR (P15208 28-748 limits assumed): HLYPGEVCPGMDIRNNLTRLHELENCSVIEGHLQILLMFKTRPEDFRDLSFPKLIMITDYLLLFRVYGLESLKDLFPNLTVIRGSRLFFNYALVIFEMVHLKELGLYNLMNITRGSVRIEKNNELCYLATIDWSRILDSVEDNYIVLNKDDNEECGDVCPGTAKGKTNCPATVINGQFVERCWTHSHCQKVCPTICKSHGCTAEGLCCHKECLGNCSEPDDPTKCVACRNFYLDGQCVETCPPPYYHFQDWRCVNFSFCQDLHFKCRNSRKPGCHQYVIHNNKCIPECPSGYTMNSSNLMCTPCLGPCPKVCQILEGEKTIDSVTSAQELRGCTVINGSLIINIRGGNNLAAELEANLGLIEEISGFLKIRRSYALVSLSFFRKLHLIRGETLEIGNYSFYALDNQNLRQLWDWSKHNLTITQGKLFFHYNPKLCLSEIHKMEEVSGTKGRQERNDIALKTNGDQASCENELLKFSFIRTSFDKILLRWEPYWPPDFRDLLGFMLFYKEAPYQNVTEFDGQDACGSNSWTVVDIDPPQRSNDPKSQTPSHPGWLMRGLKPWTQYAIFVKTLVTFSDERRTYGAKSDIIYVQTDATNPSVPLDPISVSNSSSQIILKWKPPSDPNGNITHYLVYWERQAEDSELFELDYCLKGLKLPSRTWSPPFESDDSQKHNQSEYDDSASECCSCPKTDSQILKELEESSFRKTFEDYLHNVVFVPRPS
Chain of IR (P15208 753-1372 partner limits assumed): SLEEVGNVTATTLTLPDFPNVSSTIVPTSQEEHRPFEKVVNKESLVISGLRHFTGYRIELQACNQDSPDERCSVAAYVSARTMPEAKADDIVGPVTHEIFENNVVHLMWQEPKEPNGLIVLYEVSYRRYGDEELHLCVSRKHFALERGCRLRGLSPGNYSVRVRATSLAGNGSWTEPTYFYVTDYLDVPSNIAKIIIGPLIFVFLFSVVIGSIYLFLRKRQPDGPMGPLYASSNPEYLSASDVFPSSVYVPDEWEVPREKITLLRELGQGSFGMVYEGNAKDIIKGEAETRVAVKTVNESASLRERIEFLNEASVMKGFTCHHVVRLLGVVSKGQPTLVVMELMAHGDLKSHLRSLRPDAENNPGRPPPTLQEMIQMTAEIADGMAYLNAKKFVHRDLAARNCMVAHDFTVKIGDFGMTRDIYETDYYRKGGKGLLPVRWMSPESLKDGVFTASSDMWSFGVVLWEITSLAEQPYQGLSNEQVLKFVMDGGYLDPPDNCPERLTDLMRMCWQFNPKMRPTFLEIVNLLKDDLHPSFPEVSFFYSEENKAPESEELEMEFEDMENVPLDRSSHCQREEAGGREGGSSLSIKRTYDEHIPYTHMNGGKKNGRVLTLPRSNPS
T5 sequence (P06213 28-1370 isoform P06213-2 F728A/F732A limits assumed): as the sequence (P06213 28-1370 isoform P06213-2 D734A limits assumed) above, with F701A, F705A, A707D counted along it
T5 sequence (P06213 763-1382 partner limits assumed): as the sequence (P06213 763-1382 partner limits assumed) above

With `CC[C@H](C)[C@H](NC(=O)[C@H](CCC(N)=O)NC(=O)[C@H](C)NC(=O)[C@H](Cc1c[nH]c2ccccc12)NC(=O)[C@H](CCC(=O)O)NC(=O)[C@H](CCC(=O)O)NC(=O)[C@H](CCC(=O)O)NC(=O)[C@H](CC(C)C)NC(=O)[C@H](CO)NC(C)=O)C(=O)N[C@@H](CCC(=O)O)C(=O)N[C@H]1CSSC[C@@H](C(=O)N2CCC[C@H]2C(=O)N[C@@H](CO)C(=O)N[C@@H](CCC(=O)O)C(=O)N[C@@H](CO)C(=O)N[C@@H](Cc2ccccc2)C(=O)N[C@@H](Cc2ccc(O)cc2)C(=O)N[C@@H](CC(=O)O)C(=O)N[C@@H](Cc2c[nH]c3ccccc23)C(=O)N[C@@H](Cc2ccccc2)C(=O)N[C@@H](CCC(=O)O)C(=O)N[C@@H](CCCNC(=N)N)C(=O)N[C@@H](CCC(N)=O)C(=O)N[C@@H](CC(C)C)C(N)=O)NC(=O)CNC(=O)[C@H](CCCNC(=N)N)NC(=O)CNC(=O)[C@H](Cc2ccc(O)cc2)NC(=O)[C@H](C(C)C)NC(=O)[C@H](CCC(=O)O)NC1=O` [S597] (Ac-SLEEEWAQIECEVYGRGCPSESFYDWFERQL-NH2; disulfide 11-18) the “IR activation (pY IR)” value (IR F64A) was “could still be activated”, the “IR activation (pY IR)” value (IR K484E/L552A) was “could not be activated efficiently” and the “IR activation (pY IR)” value (IR N15K) was “fully activated”. For the same molecule, the “IR activation (pY IR)” value (IR D496K) was “fully activated”, the “IR activation (pY IR)” value (IR F701A/F705A) was “fully activated” and the pAKT level (IR signaling; [5]) was “significantly increased”. The pERK level (IR signaling; [5]) was “neither insulin nor S597 had a statistically significant effect”, the “pY IR level” value (IR signaling; WAT, injection via inferior vena cava) was “robust auto-phosphorylation of the IR, albeit with lower potency than insulin” and the pERK level (IR signaling; [6]) was “increased”. For the same molecule, the “pY IR level” value (IR signaling; [6]) was “robust auto-phosphorylation of the IR, albeit with lower potency than insulin”, the pAKT level (IR signaling; [7]) was “significantly increased” and the pERK level (IR signaling; [7]) was “less potent; also recorded: not in the skeletal muscle”. The “pY IR level” value (IR signaling; [7]) was “significantly increased”, the “blood glucose levels in ITT” value (Insulin tolerance test; FIGS. 10A, 8F, 8G) was “lowered” and the “blood glucose in insulin tolerance assays” value (Insulin tolerance test; FIGS. 12B, 12C) was “lowered blood glucose in mice as effectively as insulin”. The cell proliferation (MCF7) was “did not promote”, the “area under curve (AUC) for blood glucose during OGTT” value [1] was “No significant” and the blood glucose [2] was “lowers”. For the same molecule, the “activation of IGF1R” value [3] was “does not activate”, the MAPK pathway [4] was “largely inactive” and the PI3K-AKT pathway [4] was “selectively activates”. For the same molecule, the “IR endocytosis / internalization” value (IR) was “promoted IR internalization”, the “phosphorylation of AKT (pAKT)” value (IR D707A) was “significantly increased” and the “phosphorylation of ERK (pERK)” value (IR D707A) was “significantly increased”. For the same molecule, the “phosphorylation of IR (pY IR)” value (IR D707A) was “significantly increased”.
